Molecules are shown by their SMILES.

Experimental findings from patent US20220220527A1, “METHOD FOR MEASURING THE ACTIVITY OF A CULTURE OF MICROALGAE” (TotalEnergies SE, priority 2019, published 2022) are described below.

The assay relates to aerobic bacteria. The assay is described as follows: Dissolved oxygen measurement in an illuminated microalgae-bacteria culture sample with successive additions of substrate and inhibitor (Example 2, FIG. 4). To be noted: culture of Nannochloropsis oculata sp. 0.3 g/L and aerobic bacteria 0.05 g/L. In kind it is cell-based. The procedure:
A sample of a culture comprising microalgae of the type Nannochloropsis oculata sp. in a concentration of 0.3 g/L. and aerobic bacteria in a concentration of 0.05 g/L was transferred from a bioreactor to a chamber having a volume of 300 mL and comprising a magnetic stirrer and a source for emitting light. The source for emitting light comprised light-emitting diode strings located around the chamber.
During the whole experiment, the chamber was provided with light. In other words, several illumination steps were carried out successively, in order to conduct, during each illumination step, the measurement of the dissolved oxygen present in the sample. This measurement was carried out with a Luminescent Dissolved Oxygen (LDO) sensor (HACH) inserted in the chamber. After each illumination step, the sample was returned to the bioreactor and replaced with a new sample.
More particularly, after point 11, a total amount of 70 mg/L of CuSO4 was added to the sample.

On to `O=S(=O)([O-])[O-].[Cu+2]` [CuSO4], for which the “effect on the activity of bacteria (oxygen production rate of the sample)” value (successive additions 1 to 11, total 70 mg/L CuSO4 after point 11) is given as “increasing inhibitory effect”. With `CCO` [ethanol], under “after each addition (1 to 11) of substrate”, the “effect on the activity of bacteria (dissolved oxygen concentration, oxygen consumption by respiration)” value is recorded as “increases the activity of bacteria”.
